This passage reports IC50 results from patent US9518052B2, “Pyrazolopyridines and pyrazolopyrimidines” (Pfizer Inc., priority 2014, dated 2016).

Counter-ions that a name gives are not always drawn. Some results are limits rather than exact numbers.

One assay has as its target JAK1 (Homo sapiens (Human), UniProt P23458). The experiment in a line: JAK Caliper Enzyme Assay at 1 mM ATP (JAK1). The conditions noted are these: Caliper assay at 1 mM ATP. The format is biochemical.
A further assay concerns the target JAK2 (Homo sapiens (Human), UniProt O60674). The experiment in a line: JAK Caliper Enzyme Assay at 1 mM ATP (JAK2). The format is biochemical. The conditions noted are these: Caliper assay at 1 mM ATP.
Another assay has as its target JAK3 (Homo sapiens (Human), UniProt P52333). The experiment in a line: JAK Caliper Enzyme Assay at 1 mM ATP (JAK3). The class given is biochemical. The conditions noted are these: Caliper assay at 1 mM ATP.
The next assay has as its target TYK2 (Homo sapiens (Human), UniProt P29597). The experiment in a line: JAK Caliper Enzyme Assay at 1 mM ATP (TYK2). The format is biochemical. The conditions noted are these: Caliper assay at 1 mM ATP.
Assay [1] relates to rhIFNγ stimulated STAT-3 phosphorylation in the A549 human epithelial cell line. The experiment in a line: A549 Cell Assay: Inhibition of pSTAT3. The class given is cell-based. The conditions noted are these: A549 cells. The method, then: A549 Cell Assay: Inhibition of pSTAT3
An assay measuring the efficacy of JAK inhibitors on the functional response of recombinant human interferon γ (rhIFNγ) stimulated STAT-3 phosphorylation in the A549 human epithelial cell line.
A549 cells (ATCC #CCL-185), were plated at 30,000 cells/well in 96 well flat bottomed tissue culture plates (BD#353072) in 200 μL of growth medium (DMEM, Pfizer media prep, with 10% Fetal Bovine Serum, Sigma #F4135, 2 mM L-Glutamine, Pfizer media prep, 100 U/mL penicillin, Pfizer media prep, and 200 μg/ml streptomycin, Pfizer media prep), and cultured at 37° C., 5% CO2 incubator for 18 hours. Growth medium was removed by vacuum aspiration (V&P Scientific #vp187 bp-60), and 90 μL of pre-warmed assay medium (DMEM with 0.2% BSA, Miltenyi #130-091-376) was added to each well and incubated for 15 minutes at 37° C. 10 μL of vehicle control or test compound (final concentration range of 0.3 nM to 10 μM with 0.1% DMSO) was added to the cells. Plates were incubated at 37° C. for 1 hour. After compound incubation, 10 μL of 220 ng/mL recombinant human IFNγ (R&D Systems #285-IF, final rhIFNγ concentration of 20 ng/mL) was added to the cells and plates were incubated for 30 minutes at 37° C. Wells containing A549 cells, medium with 0.1% DMSO and no rhIFNγ were used as background controls. After rhIFNγ stimulation, media was aspirated from each well and 35 μL/well of iced-cold MSD lysis buffer containing protease and phosphatase inhibitors from Phospho-STAT3 Tyr705 assay kit (Meso-Scale Discovery #K150DID) was added to each well. Plates were incubated at 4° C. with shaking for 30 minutes. Cell lysates were assayed following the MSD Phospho-STAT3 Tyr705 assay kit protocol to detect pSTAT3.
Data were collected and transformed into percent inhibition and calculated using the following formula: […]

JAK2, sequence (O60674 whole entry, species assumed): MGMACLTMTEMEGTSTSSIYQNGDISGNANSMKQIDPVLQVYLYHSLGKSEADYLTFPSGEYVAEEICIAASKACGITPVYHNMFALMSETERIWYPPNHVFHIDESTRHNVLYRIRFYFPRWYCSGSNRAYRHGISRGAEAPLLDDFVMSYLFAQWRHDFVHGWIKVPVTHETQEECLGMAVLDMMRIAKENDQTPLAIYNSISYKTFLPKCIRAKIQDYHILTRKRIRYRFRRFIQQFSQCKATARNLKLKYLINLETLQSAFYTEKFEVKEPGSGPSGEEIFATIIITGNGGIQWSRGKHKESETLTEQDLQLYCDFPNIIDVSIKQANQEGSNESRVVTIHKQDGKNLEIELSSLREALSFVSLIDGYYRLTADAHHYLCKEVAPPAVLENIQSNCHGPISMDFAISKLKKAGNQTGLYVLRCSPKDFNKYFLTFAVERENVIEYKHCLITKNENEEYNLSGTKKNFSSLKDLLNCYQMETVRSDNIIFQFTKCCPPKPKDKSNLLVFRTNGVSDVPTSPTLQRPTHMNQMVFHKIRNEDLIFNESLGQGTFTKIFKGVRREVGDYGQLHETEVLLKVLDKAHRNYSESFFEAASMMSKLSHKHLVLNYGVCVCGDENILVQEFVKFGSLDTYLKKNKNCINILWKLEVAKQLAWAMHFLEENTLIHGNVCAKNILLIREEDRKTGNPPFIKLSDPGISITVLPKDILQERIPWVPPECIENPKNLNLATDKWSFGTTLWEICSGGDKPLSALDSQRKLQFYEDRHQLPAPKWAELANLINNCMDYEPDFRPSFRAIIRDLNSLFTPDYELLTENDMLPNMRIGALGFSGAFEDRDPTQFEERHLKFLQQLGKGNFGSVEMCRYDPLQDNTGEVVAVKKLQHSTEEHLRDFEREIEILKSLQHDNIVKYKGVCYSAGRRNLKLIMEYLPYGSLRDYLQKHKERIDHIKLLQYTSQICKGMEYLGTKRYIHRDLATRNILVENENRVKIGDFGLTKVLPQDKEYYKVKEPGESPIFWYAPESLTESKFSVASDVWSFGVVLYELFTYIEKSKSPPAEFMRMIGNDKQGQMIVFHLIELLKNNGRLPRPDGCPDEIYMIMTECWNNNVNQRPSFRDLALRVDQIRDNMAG
JAK3, sequence (P52333 whole entry, species assumed): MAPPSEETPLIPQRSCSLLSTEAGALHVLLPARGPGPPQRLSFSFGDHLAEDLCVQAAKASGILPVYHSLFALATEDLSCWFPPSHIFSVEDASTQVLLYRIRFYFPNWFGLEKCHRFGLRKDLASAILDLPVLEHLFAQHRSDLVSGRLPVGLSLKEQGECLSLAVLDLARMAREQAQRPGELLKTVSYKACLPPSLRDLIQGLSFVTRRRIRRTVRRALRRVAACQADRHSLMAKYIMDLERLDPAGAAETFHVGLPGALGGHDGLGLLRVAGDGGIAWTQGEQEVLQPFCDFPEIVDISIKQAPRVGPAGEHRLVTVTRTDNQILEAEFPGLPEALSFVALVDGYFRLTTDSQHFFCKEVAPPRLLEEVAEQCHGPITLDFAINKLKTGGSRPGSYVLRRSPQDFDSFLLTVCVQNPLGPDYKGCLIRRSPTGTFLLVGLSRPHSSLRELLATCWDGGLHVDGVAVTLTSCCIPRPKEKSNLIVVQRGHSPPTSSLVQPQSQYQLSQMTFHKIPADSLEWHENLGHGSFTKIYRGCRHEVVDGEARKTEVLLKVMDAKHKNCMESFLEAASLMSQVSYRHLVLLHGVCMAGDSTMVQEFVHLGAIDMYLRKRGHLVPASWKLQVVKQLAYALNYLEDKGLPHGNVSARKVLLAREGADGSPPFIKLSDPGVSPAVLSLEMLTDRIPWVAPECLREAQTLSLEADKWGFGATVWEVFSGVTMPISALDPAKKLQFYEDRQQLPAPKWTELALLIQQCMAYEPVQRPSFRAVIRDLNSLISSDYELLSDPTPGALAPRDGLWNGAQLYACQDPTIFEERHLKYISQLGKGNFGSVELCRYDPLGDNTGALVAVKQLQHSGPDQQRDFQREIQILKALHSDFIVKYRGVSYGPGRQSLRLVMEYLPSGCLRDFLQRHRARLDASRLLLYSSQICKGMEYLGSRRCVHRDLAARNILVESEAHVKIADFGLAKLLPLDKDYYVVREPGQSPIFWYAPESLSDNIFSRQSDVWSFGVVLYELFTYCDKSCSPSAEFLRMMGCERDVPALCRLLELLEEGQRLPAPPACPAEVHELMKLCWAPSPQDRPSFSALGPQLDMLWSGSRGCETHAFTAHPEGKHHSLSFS
TYK2, sequence (P29597 whole entry, species assumed): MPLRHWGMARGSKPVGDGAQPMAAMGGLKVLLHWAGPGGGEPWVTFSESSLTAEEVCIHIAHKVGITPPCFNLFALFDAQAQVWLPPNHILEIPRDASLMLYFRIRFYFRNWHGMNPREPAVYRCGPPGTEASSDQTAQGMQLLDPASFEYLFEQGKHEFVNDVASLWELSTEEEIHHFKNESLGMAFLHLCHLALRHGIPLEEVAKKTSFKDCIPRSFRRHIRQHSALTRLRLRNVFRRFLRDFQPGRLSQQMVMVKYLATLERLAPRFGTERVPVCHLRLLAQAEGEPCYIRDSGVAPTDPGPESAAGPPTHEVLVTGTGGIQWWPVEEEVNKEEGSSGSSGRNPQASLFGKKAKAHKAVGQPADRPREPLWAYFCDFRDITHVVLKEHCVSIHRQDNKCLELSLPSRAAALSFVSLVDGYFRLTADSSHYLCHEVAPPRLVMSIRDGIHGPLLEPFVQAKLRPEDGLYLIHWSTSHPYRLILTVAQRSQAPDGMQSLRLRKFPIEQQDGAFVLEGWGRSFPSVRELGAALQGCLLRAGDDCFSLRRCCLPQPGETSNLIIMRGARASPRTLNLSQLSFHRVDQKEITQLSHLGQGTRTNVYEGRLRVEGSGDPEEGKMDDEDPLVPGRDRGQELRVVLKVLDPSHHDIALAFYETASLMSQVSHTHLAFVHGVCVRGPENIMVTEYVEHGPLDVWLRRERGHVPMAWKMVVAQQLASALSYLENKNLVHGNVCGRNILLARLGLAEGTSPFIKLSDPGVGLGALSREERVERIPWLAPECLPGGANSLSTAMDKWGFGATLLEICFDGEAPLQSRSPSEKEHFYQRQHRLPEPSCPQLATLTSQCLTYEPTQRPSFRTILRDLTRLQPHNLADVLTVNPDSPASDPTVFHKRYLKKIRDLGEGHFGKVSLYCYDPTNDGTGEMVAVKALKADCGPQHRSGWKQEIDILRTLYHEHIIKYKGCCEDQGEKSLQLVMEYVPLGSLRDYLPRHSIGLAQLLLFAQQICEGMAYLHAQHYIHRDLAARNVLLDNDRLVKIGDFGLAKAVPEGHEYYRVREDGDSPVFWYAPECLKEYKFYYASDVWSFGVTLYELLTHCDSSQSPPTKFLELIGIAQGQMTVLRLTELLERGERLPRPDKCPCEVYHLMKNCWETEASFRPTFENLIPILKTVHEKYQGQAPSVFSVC
JAK1, sequence (P23458 whole entry, species assumed): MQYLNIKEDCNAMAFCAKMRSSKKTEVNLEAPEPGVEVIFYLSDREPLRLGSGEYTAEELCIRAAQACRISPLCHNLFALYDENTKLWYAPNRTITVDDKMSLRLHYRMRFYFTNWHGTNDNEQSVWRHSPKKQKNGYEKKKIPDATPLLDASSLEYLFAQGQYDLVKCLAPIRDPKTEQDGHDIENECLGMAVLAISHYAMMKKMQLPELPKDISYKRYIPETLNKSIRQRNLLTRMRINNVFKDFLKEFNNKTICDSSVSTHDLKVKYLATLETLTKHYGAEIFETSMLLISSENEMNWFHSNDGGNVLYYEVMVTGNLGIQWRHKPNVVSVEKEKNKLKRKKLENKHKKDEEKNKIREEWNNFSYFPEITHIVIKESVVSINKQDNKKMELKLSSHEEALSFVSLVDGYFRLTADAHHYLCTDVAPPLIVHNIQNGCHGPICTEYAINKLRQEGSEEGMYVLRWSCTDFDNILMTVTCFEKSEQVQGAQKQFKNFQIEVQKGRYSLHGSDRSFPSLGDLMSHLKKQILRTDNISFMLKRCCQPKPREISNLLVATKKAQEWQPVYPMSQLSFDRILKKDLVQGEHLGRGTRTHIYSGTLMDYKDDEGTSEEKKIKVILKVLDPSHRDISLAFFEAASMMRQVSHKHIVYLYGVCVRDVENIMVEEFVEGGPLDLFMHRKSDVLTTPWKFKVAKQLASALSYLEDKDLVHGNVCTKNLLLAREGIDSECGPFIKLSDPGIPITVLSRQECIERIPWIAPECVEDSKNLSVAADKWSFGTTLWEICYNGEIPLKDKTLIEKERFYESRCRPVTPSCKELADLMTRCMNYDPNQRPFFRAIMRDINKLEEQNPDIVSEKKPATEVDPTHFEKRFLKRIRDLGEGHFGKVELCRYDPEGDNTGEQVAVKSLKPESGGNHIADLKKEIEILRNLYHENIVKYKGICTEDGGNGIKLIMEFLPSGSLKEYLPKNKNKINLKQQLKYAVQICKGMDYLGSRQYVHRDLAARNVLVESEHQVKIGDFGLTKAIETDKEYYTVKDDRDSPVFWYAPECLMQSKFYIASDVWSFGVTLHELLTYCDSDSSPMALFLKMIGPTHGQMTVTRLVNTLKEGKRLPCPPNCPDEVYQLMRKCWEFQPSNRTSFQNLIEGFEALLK

`CCc1cc(O)c(F)cc1-c1nc(NCc2ccccc2N(C)S(C)(=O)=O)c2cn[nH]c2n1` [Example 155, N-[2-({[6-(2-Ethyl-5-fluoro-4-hydroxyphenyl)-1H-pyrazolo[3,4-d]pyrimidin-4-yl]amino}methyl)phenyl]-N-methylmethanesulfonamide hydrochloride]: the IC50 against JAK1 is 1.2 nM; against JAK2, 5 nM; against JAK3 it was 15.5 nM; on TYK2, 61 nM; in assay [1] (Homo sapiens) it was 30.1 nM.
As for “6-[5-fluoro-4-hydroxy-2-(2,2,2-trifluoroethyl)phenyl]-4-({5-methoxy-2-[methyl(methylsulfonyl)amino]benzyl}amino)-N-methyl-1H-pyrazolo[4,3-c]pyridine-3-carboxamide [Example 50]”, the IC50 against JAK2 came to 10.7 nM; against JAK3 it was 47.4 nM; on TYK2 it was 10.5 nM; in assay [1], 321 nM.
As for `CCc1cc(O)c(F)cc1-c1cc2[nH]nc(-c3nc(C)c(C)[nH]3)c2c(NCc2ccccc2N(C)S(C)(=O)=O)n1` [Example 158, N-[2-({[3-(4,5-Dimethyl-1H-imidazol-2-yl)-6-(2-ethyl-5-fluoro-4-hydroxyphenyl)-1H-pyrazolo[4,3-c]pyridin-4-yl]amino}methyl)phenyl]-N-methylmethanesulfonamide], the IC50 was 5.3 nM at JAK1; 27.8 nM at JAK2; 114 nM on JAK3; 33.3 nM on TYK2; 31.3 nM in assay [1] (Homo sapiens).
Regarding `CCc1cc(O)cc(C)c1-c1cc2[nH]ncc2c(NCc2ccccc2N(C)S(C)(=O)=O)n1` [Example 156, N-(2-(((6-(2-Ethyl-4-hydroxy-6-methylphenyl)-1H-pyrazolo[4,3-c]pyridin-4-yl)amino)methyl)phenyl)-N-methylmethanesulfonamide], the half-maximal inhibitory concentration (IC50) at JAK1 came out at 25.5 nM; at JAK3, 177 nM; against TYK2, 10000 nM; in assay [1] (Homo sapiens), 72.4 nM.
For the compound `CN(c1ccc(O)cc1CNc1nc(-c2cc(F)c(O)cc2CC(F)(F)F)cc2[nH]nc(C(=O)Nc3ccc(NCCO)nc3)c12)S(C)(=O)=O` [Example 75, 6-[5-Fluoro-4-hydroxy-2-(2,2,2-trifluoroethyl)phenyl]-N-{6-[(2-hydroxyethyl)amino]pyridin-3-yl}-4-({5-hydroxy-2-[methyl(methylsulfonyl)amino]benzyl}amino)-1H-pyrazolo[4,3-c]pyridine-3-carboxamide], in assay [1] (Homo sapiens), the midpoint of inhibition, the IC50, lay at 1350 nM.
Take `CNC(=O)c1n[nH]c2cc(-c3cc(F)c(O)cc3CC(F)(F)F)nc(NCc3ccccc3N(C)S(=O)(=O)N(C)C)c12` [Example 57]: the IC50 against JAK1 came out at 21.1 nM; on JAK2, 93.4 nM; against JAK3 it was 409 nM; on TYK2, 149 nM; in assay [1], 60.4 nM.
Regarding `CN(c1ccccc1CNc1nc(-c2cc(F)c(O)cc2CC(F)(F)F)cc2[nH]nc(C(N)=O)c12)S(=O)(=O)c1ccccc1` [Example 26, 6-[5-fluoro-4-hydroxy-2-(2,2,2-trifluoroethyl)phenyl]-4-({2-[methyl(phen-ylsulfonyl)amino]ben-zyl}amino)-1H-pyrazolo[4,3-c]pyridine-3-carboxamide], the midpoint of inhibition in assay [1], the IC50, lay at 124 nM.
In assay [1] (Homo sapiens), `CN(c1ccc(O)cc1CNc1nc(-c2cc(F)c(O)cc2CC(F)(F)F)nc2[nH]nc(-c3nc4c([nH]3)CCNC4)c12)S(C)(=O)=O` [Example 169, N-{2-[({6-[5-Fluoro-4-hydroxy-2-(2,2,2-trifluoroethyl)phenyl]-3-(4,5,6,7-tetrahydro-1H-imidazo[4,5-c]pyridin-2-yl)-1H-pyrazolo[3,4-d]pyrimidin-4-yl}amino)methyl]-4-hydroxyphenyl}-N-methylmethanesulfonamide] returned an IC50 of over 10000 nM.
On to `CCc1cc(O)c(F)cc1-c1cc2[nH]nc(C(=O)NC)c2c(NCc2cc(C)ccc2N(C)S(C)(=O)=O)n1` [Example 21, 6-(2-ethyl-5-fluoro-4-hydroxyphenyl)-N-methyl-4-({5-methyl-2-[methyl(methylsulfon-yl)amino]benzyl}ami-no)-1H-pyrazolo[4,3-c]pyridine-3-carboxamide], for which half-maximal inhibition in assay [1] (IC50) required 35.6 nM.
The same measure, in the same setting: under `CNC(=O)c1n[nH]c2cc(-c3cc(F)c(O)cc3CC(F)(F)F)nc(NCc3cc(O)ccc3N(C)S(=O)(=O)c3ccccc3)c12` [Example 35, 6-[5-fluoro-4-hydroxy-2-(2,2,2-trifluoroethyl)phenyl]-4-({5-hydroxy-2-[methyl(phenylsulfon-yl)amino]benzyl}amino)-N-methyl-1H-pyrazolo[4,3-c]pyridine-3-carboxamide] stands 437 nM.
For the compound `CSCCNc1nc(-c2cc(F)c(O)cc2CC(F)(F)F)cc2[nH]nc(-c3nc4c([nH]3)CCN(Cc3ccccc3)C4)c12` [Example 161, 4-[3-(5-Benzyl-4,5,6,7-tetrahydro-1H-imidazo[4,5-c]pyridin-2-yl)-4-{[2-(methylsulfanyl)-ethyl]amino}-1H-pyrazolo[4,3-c]pyridin-6-yl]-2-fluoro-5-(2,2,2-trifluoroethyl)phenol], the IC50 in assay [1] (Homo sapiens) was over 10000 nM.
In assay [1], `CCc1cc(O)c(F)cc1-c1cc2[nH]nc(C(=O)NC)c2c(NCC2CCCC2)n1` [Example 10, 4-[(cyclopentylmethyl)ami-no]-6-(2-ethyl-5-fluoro-4-hydroxyphenyl)-N-methyl-1H-pyrazolo[4,3-c]pyridine-3-carboxamide] yielded an IC50 of 26 nM.
On the same count and under the same terms, under `CNC(=O)c1n[nH]c2cc(-c3cc(F)c(O)cc3CC(F)(F)F)nc(NCc3c(F)cccc3N(C)S(C)(=O)=O)c12` [Example 18, 6-[5-fluoro-4-hydroxy-2-(2,2,2-trifluoroethyl)phenyl]-4-({2-fluoro-6-[methyl(meth-ylsulfonyl)amino]benz-yl}amino)-N-methyl-1H-pyrazolo[4,3-c]pyridine-3-carboxamide] stands 97 nM; under `CNC(=O)c1n[nH]c2cc(-c3cc(F)c(O)cc3CC(F)(F)F)nc(NCc3ccc(O)cc3N(C)S(C)(=O)=O)c12` [Example 33, 6-[5-fluoro-4-hydroxy-2-(2,2,2-trifluoroethyl)phenyl]-4-({4-hydroxy-2-[methyl(methylsulfon-yl)amino]benzyl}amino)-N-methyl-1H-pyrazolo[4,3-c]pyridine-3-carboxamide], 490 nM.
Regarding `CNC(=O)c1n[nH]c2cc(-c3cc(F)c(O)cc3CC(F)(F)F)nc(NCc3ccccc3N(C)S(=O)(=O)c3cn(C)cn3)c12` [Example 59], the IC50 was found to be 5.3 nM against JAK1; 23.5 nM against JAK2; 112 nM at JAK3; 22.6 nM at TYK2; 290 nM in assay [1].
As to `CNC(=O)c1n[nH]c2nc(-c3cc(F)c(O)cc3CC(F)(F)F)nc(NCc3ccccc3N(C)S(C)(=O)=O)c12` [Example 94, 6-(5-Fluoro-4-hydroxy-2-(2,2,2-trifluoroethyl)phenyl)-N-methyl-4-((2-(N-methylmethylsulfonamido)benzyl)amino)-1H-pyrazolo[3,4-d]pyrimidine-3-carboxamide], the IC50 on JAK1 was 5.4 nM; against JAK2, 27.7 nM; on JAK3 it was 71.2 nM; against TYK2 it was 503 nM; in assay [1] (Homo sapiens) it was 126 nM.
In turn, `CCc1cc(O)c(F)cc1-c1cc2[nH]nc(C(=O)NC)c2c(NCc2ccccc2N(C)S(=O)(=O)c2ccccc2)n1` [Example 22, 6-(2-ethyl-5-fluoro-4-hydroxyphenyl)-N-methyl-4-({2-[methyl(phen-ylsulfonyl)amino]ben-zyl}amino)-1H-pyrazolo[4,3-c]pyridine-3-carboxamide] registered an IC50 in assay [1] of 52.8 nM.
Turning to `CNC(=O)c1n[nH]c2cc(-c3cc(F)c(O)cc3CC(F)(F)F)nc(NCc3cc(F)ccc3N(C)S(C)(=O)=O)c12` [Example 14, 6-[5-fluoro-4-hydroxy-2-(2,2,2-trifluoroethyl)phenyl]-4-({5-fluoro-2-[methyl(methylsulfon-yl)amino]benzyl}ami-no)-N-methyl-1H-pyrazolo[4,3-c]pyridine-3-carboxamide], it took 20.7 nM to reach half-maximal inhibition in assay [1] (IC50).
Same read-out and setting: under `CCc1cc(O)c(F)cc1-c1cc2[nH]ncc2c(N(CCc2ccc(NS(C)(=O)=O)cc2)Cc2ccccc2N(C)S(C)(=O)=O)n1` [Example 130, N-[2-({[6-(2-ethyl-5-fluoro-4-hydroxyphenyl)-1H-pyrazolo[4,3-c]pyridin-4-yl](2-{4-[(methylsulfon-yl)amino]phenyl}ethyl)amino}methyl)phenyl]-N-methylmethanesulfonamide hydrochloride] stands 729 nM.

What is called IC50 is the concentration at which inhibition is half-maximal. Lower therefore signals higher potency.
